We go through 3 molecules from US20170246194A1, “Acetaminophen-Containing Analgesic Formulations With Reduced Hepatotoxicity” (Purdue Pharma L.P., priority 2014, published 2017).

One data set has as its system volunteers. The settings on record: human volunteers, given with acetaminophen 4 grams a day.
The next data set relates to male C3HeB/FeJ mice. The data set is described as follows: Toxicity in mice: acetaminophen-induced liver injury, plasma ALT activity. The data set is classed as in vivo. The settings on record: fasted mice; for protection of the liver against acetaminophen damage (maximal ALT elevation): cimetidine 20% and/or methionine 30% of the acetaminophen dose. As for the experimental part:
This example is performed as described in Saito, Hepatology, 51(1):246, 2010, which is incorporated by reference herein.
At selected times after acetaminophen treatment, groups of animals are killed by way of cervical dislocation under anesthesia. Blood is drawn from the vena cava into heparinized syringes and centrifuged. The plasma is used for determination of alanine aminotransferase (ALT) activities. Plasma ALT activities are determined and expressed as international units per liter.
After establishing the model in the pilot phase, five experimental groups are studied. The groups receive vehicles containing the ingredients noted in Table B. If the methionine or cimetidine is ineffective or is fully protective, the doses are adjusted and the experiment repeated until the relative contribution of each relative to the combination is determined.
The outcome is maximal ALT elevation. Data are expressed as the mean±standard error. Comparison between groups is performed analysis of variance, or alternative non-parametric procedures if the data is not normally distributed. P<0.05 is considered significant.

The conditions of data set [1]: normally, in man; cited from earlier work.

Source text for volunteers: All subjects participate in an initial multiple dose study of 1 gram of acetaminophen given four times a day (four grams a day), protected by twice a day transaminase determinations. […] Subjects with no elevation are terminated from the study. Subjects rest for three weeks after the first phase and then return for the second phase.
Subjects dose at 4 grams of acetaminophen a day. They have twice daily blood samples for serum transaminases, and proceed to the next day's dosing only if their most recent transaminase values are no more than 3 times the upper limit of normal.
The outcome variable is maximal transaminase elevations for each subject relative to baseline tested by ANOVA for each formulation. The test article is hepato-protective if there is a significant (P<0.05) difference in outcome for the formulation.
Subjects with transaminase elevations are followed at intervals to ensure that their values return to normal.

With `CN/C(=N/CCSCc1nc[nH]c1C)NC#N` [cimetidine], the serious adverse effects entry with volunteers is listed as “no additional serious adverse effects”. For the same molecule, the “protection of the liver against acetaminophen damage (maximal ALT elevation)” value in the data set on male C3HeB/FeJ mice is reported as “protected against damage”.

For `CC(=O)Nc1ccc(O)cc1` [acetaminophen, N-acetyl-p-aminophenol], in the data set with male C3HeB/FeJ mice (acetaminophen alone, intraperitoneal single dose), the “liver injury (maximal ALT elevation)” value is on record as “causes liver injury”. Moreover, the “ingested dose metabolized to the non-toxic sulfate or glucuronide” value in data set [1] is given as 96%.

On to `CSCC[C@H](N)C(=O)O` [methionine], for which, in the data set with volunteers, the serious adverse effects result is given as “no additional serious adverse effects”. Further, the “protection of the liver against acetaminophen damage (maximal ALT elevation)” value in the data set with male C3HeB/FeJ mice is “protected against damage”.
